Experimental data from patent publication US11999727B2 (Tango Therapeutics, Inc., priority 2020, dated 2024).
Like-named read-outs stand apart in the source and are kept apart here.

Assays:
PRMT5 [1] = target: T1, PRMT5 (Homo sapiens, UniProt O14744); experiment: PRMT5 biochemical IC50 assay with SAM as cofactor; conditions: PRMT5, SAM as cofactor; read-out: SAM IC50
T1 construct: purchased Viva (custom protein)

PRMT5 [2] = target: T1, PRMT5; experiment: PRMT5 biochemical IC50 assay with no cofactor; conditions: PRMT5, no cofactor
From the text: Table 1 indicates IC50 values (μM) against PRMT5 for exemplary compounds in the presence of SAM as cofactor, with no cofactor, and with MTA as cofactor, respectively (columns 4-6). […] Ki values can be calculated from the IC50 values as described in the Examples section. As detailed in the Examples section, for the assay performed in the presence of SAM, IC50=Ki×1.5 (Ki=IC50/1.5).

PRMT5 [3] = target: T1, PRMT5; experiment: PRMT5 biochemical IC50 assay with MTA as cofactor; conditions: PRMT5, MTA as cofactor; read-out: MTA IC50
[4] = tested on: HAP1 MTAP-intact cell line; experiment: SDMA in-cell western assay, HAP1 MTAP-intact; format: cell-based; conditions: Homo sapiens
Summary of the method: (§1)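 Isogenic HAP1 pair: the MTAP-intact line expresses endogenous MTAP, and the deleted line is MTAP-null. Symmetric dimethylarginine was detected by in-cell western and IC50 values derived for each line.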

[5] = tested on: HAP1 MTAP-deleted cell line; experiment: SDMA in-cell western assay, HAP1 MTAP-deleted; format: cell-based; conditions: for IC50: Homo sapiens; for MTAP intact/deleted ratio: SDMA in-cell western
Summary of the method: as §1

[6] = tested on: HAP1 MTAP-deleted cell line; experiment: Viability assay, MTAP-deleted cell line; format: cell-based; conditions: Homo sapiens
From the text: Table 1 additionally indicates IC50 values in a viability assay for the MTAP-deleted cell line (column 10), indicating the effect of treatment with compound on cell survival.

[7] = HAP1, SDMA in-cell western, HAP1 MTAP-intact, read-out: MTAP HAP1 intact IC50
[8] = HAP1, SDMA in-cell western, HAP1 MTAP-deleted, read-out: HAP1 MTAP deleted IC50
[9] = IC50 ratio HAP1 MTAP-intact / HAP1 MTAP-deleted
[10] = HAP1, viability assay, MTAP-deleted cell line, read-out: HAP1 MTAP deleted viability
[11] = HAP1, SDMA in-cell western, HAP1 MTAP-deleted, read-out: HAP 1 MTAP deleted IC50
[12] = read-out: No Cofactor/ rel IC50
[13] = HAP1, viability, HAP1 MTAP-deleted cell line, read-out: HAP1 MTAP deleted viability
[14] = HAP1, viability assay, HAP1 MTAP-deleted, read-out: HAP1 MTAP deleted viability
[15] = HAP1, viability IC50, MTAP-deleted cell line, read-out: HAP1 MTAP deleted viability

T1 sequence (O14744 whole entry): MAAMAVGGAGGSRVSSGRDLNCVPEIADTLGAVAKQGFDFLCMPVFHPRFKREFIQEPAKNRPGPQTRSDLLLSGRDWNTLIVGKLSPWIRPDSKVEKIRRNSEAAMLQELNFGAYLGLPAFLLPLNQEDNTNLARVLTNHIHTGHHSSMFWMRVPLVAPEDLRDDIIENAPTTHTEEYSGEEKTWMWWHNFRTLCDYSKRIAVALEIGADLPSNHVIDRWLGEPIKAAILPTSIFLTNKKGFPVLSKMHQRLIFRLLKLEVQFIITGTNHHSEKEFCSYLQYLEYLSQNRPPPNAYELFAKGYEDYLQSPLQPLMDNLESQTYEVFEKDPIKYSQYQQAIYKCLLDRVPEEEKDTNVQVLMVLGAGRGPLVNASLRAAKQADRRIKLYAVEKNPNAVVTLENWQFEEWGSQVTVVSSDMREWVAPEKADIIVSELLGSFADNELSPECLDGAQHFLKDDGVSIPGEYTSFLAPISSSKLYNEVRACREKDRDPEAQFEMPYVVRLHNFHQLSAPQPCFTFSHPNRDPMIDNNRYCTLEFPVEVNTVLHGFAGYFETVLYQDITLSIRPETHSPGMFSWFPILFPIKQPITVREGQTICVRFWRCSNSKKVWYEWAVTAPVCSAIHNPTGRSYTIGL
T1 sequence (Q9BQA1 whole entry partner): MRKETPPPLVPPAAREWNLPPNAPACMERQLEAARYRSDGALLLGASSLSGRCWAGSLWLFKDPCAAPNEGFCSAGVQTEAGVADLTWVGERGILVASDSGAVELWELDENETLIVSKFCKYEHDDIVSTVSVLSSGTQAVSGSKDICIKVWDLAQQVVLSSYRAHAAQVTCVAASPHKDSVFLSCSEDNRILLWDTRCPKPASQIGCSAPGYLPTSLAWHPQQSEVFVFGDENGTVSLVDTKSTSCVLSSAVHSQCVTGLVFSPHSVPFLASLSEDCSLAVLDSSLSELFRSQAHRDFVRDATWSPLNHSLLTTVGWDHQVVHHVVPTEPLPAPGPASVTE

IC50 (PRMT5 [1]) [µM] | IC50 (PRMT5 [2]; read-out: No Cofactor/rel IC50) [µM] | IC50 (PRMT5 [3]) [µM] | IC50 [4, 7] [µM] | IC50 [5, 8] [µM] | IC50 [5, 11] [µM] | IC50 (PRMT5 [2]; [12]) [µM] | Compound | MTAP intact/deleted ratio [5, 9] | IC50 [6, 10] [µM] | IC50 [6, 13] [µM] | IC50 [6, 14] [µM] | IC50 [6, 15] [µM] | IC50 ([4]; HAP1, read-out: MTAP HAP1 intact IC50) [µM] | IC50 ([5]; HAP1, read-out: HAP1 MTAP deleted IC50) [µM] | MTAP intact/deleted ratio ([5]; IC50 ratio HAP1 MTAP-intact vs HAP1 MTAP-deleted) | IC50 ([6]; HAP1, read-out: HAP1 MTAP deleted viability) [µM]
0.05 to 0.5 | 0.05 to 0.5 | 0.05 to 0.5 | > 1 | > 1 |  |  | C[C@@H]1CC[C@@H](c2ccc3nccn3c2)N(C(=O)C(=O)Nc2cncc(C(N)=O)c2)C1 (racemic) [Compound 234, rac-5-{2-[(2R,5S)-2-{Imidazo[1,2-a]pyridin-6-yl}-5-methylpiperidin-1-yl]-2-oxoacetamido}pyridine-3-carboxamide] | C (an IC50 ratio of less than 3 fold) | > 10 |  |  |  |  |  |  | 
0.05 to 0.5 | < 0.05 | < 0.05 | 0.1 to 1 |  | < 0.1 |  | CCc1cc(NC(=O)C(=O)N2C[C@@H](C)CC[C@@H]2c2ccc(NC(C)=O)cc2)cnc1N (single isomer, unassigned) [Compound 890] | A (an IC50 ratio greater than or equal to 10 fold) | < 1 |  |  |  |  |  |  | 
0.05 to 0.5 | 0.05 to 0.5 | 0.05 to 0.5 | 0.1 to 1 |  | < 0.1 |  | Cc1cc(NC(=O)C(=O)N2C[C@H](C)CC[C@H]2c2ccsc2)cnc1N (racemic) [Compound 977, rac-N-(6-Amino-5-methyl-3-pyridyl)-2-[(2R,5S)-5-methyl-2-(3-thienyl)-1-piperidyl]-2-oxo-acetamide] | B (an IC50 ratio greater than or equal to 3 fold but lower than 10 fold) | 1 to 10 |  |  |  |  |  |  | 
0.05 to 0.5 | 0.05 to 0.5 | < 0.05 | > 1 | 0.1 to 1 |  |  | CC(=O)N1CCC(c2cccc([C@@H]3CC[C@@H](C)CN3C(=O)C(=O)Nc3cncc(C(N)=O)c3)c2)CC1 (single isomer, unassigned) [Compound 346] | A (an IC50 ratio greater than or equal to 10 fold) | 1 to 10 |  |  |  |  |  |  | 
0.05 to 0.5 |  | 0.05 to 0.5 | 0.1 to 1 |  | < 0.1 | 0.05 to 0.5 | CCc1cc(NC(=O)C(=O)N2C[C@@H](C)[C@H](OC(C)C)C[C@@H]2c2ccc3scnc3c2)cnc1N (racemic) [Compound 1343, N-(6-Amino-5-ethyl-3-pyridyl)-2-[(2S,4S,5S)-2-(1,3-benzothiazol-5-yl)-4-isopropoxy-5-methyl-1-piperidyl]-2-oxo-acetamide] | A (an IC50 ratio greater than or equal to 10 fold) |  | < 1 |  |  |  |  |  | 
0.05 to 0.5 | < 0.05 | < 0.05 | 0.1 to 1 | < 0.1 |  |  | Cc1cc(NC(=O)C(=O)N2C[C@@H](C)CC[C@@H]2c2cc3[nH]ncc3s2)cnc1N (single isomer, unassigned) [Compound 824] | A (an IC50 ratio greater than or equal to 10 fold) |  |  | < 1 |  |  |  |  | 
0.05 to 0.5 | 0.05 to 0.5 | < 0.05 | > 1 | 0.1 to 1 |  |  | C[C@@H]1CC[C@@H](c2ccc(C(N)=O)cc2)N(C(=O)C(=O)Nc2cncc(C(N)=O)c2)C1 (racemic) [Compound 220, rac-5-{2-[(2R,5S)-2-(4-Carbamoylphenyl)-5-methylpiperidin-1-yl]-2-oxoacetamido}pyridine-3-carboxamide] | A (an IC50 ratio greater than or equal to 10 fold) | > 10 |  |  |  |  |  |  | 
0.05 to 0.5 | 0.05 to 0.5 | < 0.05 | > 1 | 0.1 to 1 |  |  | C[C@@H]1CC[C@@H](c2cc(F)c(F)c(Cl)c2)N(C(=O)C(=O)Nc2cncc(C(N)=O)c2)C1 (single isomer, unassigned) [Compound 834] | A (an IC50 ratio greater than or equal to 10 fold) |  |  | 1 to 10 |  |  |  |  | 
0.05 to 0.5 | < 0.05 | < 0.05 | 0.1 to 1 |  | < 0.1 |  | Cc1cc(NC(=O)C(=O)N2C[C@H](C)CC[C@H]2c2ccc3c(c2)CCC(=O)N3)cnc1C (relative stereo) [Compound 632] | A (an IC50 ratio greater than or equal to 10 fold) |  |  |  | < 1 |  |  |  | 
0.05 to 0.5 | 0.05 to 0.5 | 0.05 to 0.5 | > 1 |  | 0.1 to 1 |  | CCc1cc(NC(=O)C(=O)N2C[C@H](C)CC[C@H]2c2ccc(NS(C)(=O)=O)nc2)cnc1N (single isomer, unassigned) [Compound 995] | A (an IC50 ratio greater than or equal to 10 fold) | > 10 |  |  |  |  |  |  | 
0.05 to 0.5 | 0.05 to 0.5 | < 0.05 | > 1 |  | 0.1 to 1 |  | Cc1cc(NC(=O)C(=O)N2C[C@H](C)CC[C@H]2c2cccc3[nH]ncc23)cnc1N (racemic) [Compound 690, rac-N-(6-amino-5-methyl-3-pyridyl)-2-[(2S,5R)-2-(1H-indazol-4-yl)-5-methyl-1-piperidyl]-2-oxo-acetamide] | A (an IC50 ratio greater than or equal to 10 fold) |  |  |  | 1 to 10 |  |  |  | 
0.05 to 0.5 |  | < 0.05 | > 1 |  | 0.1 to 1 | 0.05 to 0.5 | Cc1cccc([C@H]2CCCCN2C(=O)C(=O)Nc2cnc(N)c(C)c2)c1 (single isomer, unassigned) [Compound 54] | A (an IC50 ratio greater than or equal to 10 fold) | 1 to 10 |  |  |  |  |  |  | 
< 0.05 | 0.05 to 0.5 | < 0.05 | > 1 |  | < 0.1 |  | C[C@H]1CC[C@H](c2ccc3c(c2)OCCN3)N(C(=O)C(=O)Nc2cncc(C(N)=O)c2)C1 (single isomer, unassigned) [Compound 598] | A (an IC50 ratio greater than or equal to 10 fold) |  |  |  | < 1 |  |  |  | 
> 0.5 | > 0.5 | > 0.5 | > 1 | > 1 |  |  | COCCc1nc2cc([C@H]3CC[C@H](C)CN3C(=O)C(=O)Nc3cnc(N)c(C4CC4)c3)ccc2s1 (single isomer, unassigned) [Compound 1176] |  | > 10 |  |  |  |  |  |  | 
< 0.05 |  | < 0.05 | > 1 |  | < 0.1 | < 0.05 | COc1ncc(NC(=O)C(=O)N2C[C@@H](C)CC[C@@H]2c2cccc(OCCN(C)C)c2)cc1C(N)=O [Compound 1352, 5-(2-((2R,5S)-2-(3-(2-(dimethylamino)ethoxy)phenyl)-5-methylpiperidin-1-yl)-2-oxoacetamido)-2-methoxynicotinamide] |  |  | < 1 |  |  |  |  |  | 
0.05 to 0.5 | > 0.5 | 0.05 to 0.5 | > 1 |  | > 1 |  | C[C@@H]1CN(C(=O)C(=O)Nc2cncc(C(N)=O)c2)C[C@H]2CCCC[C@H]21 (racemic) [Compound 542, 5-[[2-[(4S,4aS,8aS)-4-Methyl-3,4,4a,5,6,7,8,8a-octahydro-1H-isoquinolin-2-yl]-2-oxo-acetyl]amino]pyridine-3-carboxamide] | B (an IC50 ratio greater than or equal to 3 fold but lower than 10 fold) |  |  |  | > 10 |  |  |  | 
> 0.5 | > 0.5 | > 0.5 | > 1 | > 1 |  |  | C[C@@H]1CC[C@@H](c2ccc(NS(C)(=O)=O)cc2)N(C(=O)C(=O)Nc2cncc(C(N)=O)c2)C1 (single isomer, unassigned) [Compound 469] | C (an IC50 ratio of less than 3 fold) | > 10 |  |  |  |  |  |  | 
0.05 to 0.5 |  | 0.05 to 0.5 | > 1 |  | 0.1 to 1 | > 0.5 | CC(C)C1CCCCN1C(=O)C(=O)Nc1cncc(C(N)=O)c1 (centres unmarked) [Compound 100, 5-[[2-(2-isopropyl-1-piperidyl)-2-oxo-acetyl]amino]pyridine-3-carboxamide] | A (an IC50 ratio greater than or equal to 10 fold) | > 10 |  |  |  |  |  |  | 

Compound | IC50 (PRMT5 [1]) [µM] | IC50 (PRMT5 [2]; read-out: No Cofactor/rel IC50) [µM] | IC50 (PRMT5 [3]) [µM] | IC50 [4, 7] [µM] | IC50 [5, 8] [µM] | IC50 [5, 11] [µM] | IC50 (PRMT5 [2]; [12]) [µM] | MTAP intact/deleted ratio [5, 9] | IC50 [6, 10] [µM] | IC50 [6, 13] [µM] | IC50 [6, 14] [µM] | IC50 [6, 15] [µM] | IC50 ([4]; HAP1, read-out: MTAP HAP1 intact IC50) [µM] | IC50 ([5]; HAP1, read-out: HAP1 MTAP deleted IC50) [µM] | MTAP intact/deleted ratio ([5]; IC50 ratio HAP1 MTAP-intact vs HAP1 MTAP-deleted) | IC50 ([6]; HAP1, read-out: HAP1 MTAP deleted viability) [µM]
Cc1cc(NC(=O)C(=O)N2C[C@@H](C)CC[C@@H]2c2ccc(N(C)C3CCN(C)CC3)nc2)cnc1N [Compound 1225, N-(6-Amino-5-methyl-3-pyridyl)-2-[(2R,5S)-5-methyl-2-[6-[methyl-(1-methyl-4-piperidyl)amino]-3-pyridyl]-1-piperidyl]-2-oxo-acetamide] | < 0.05 | < 0.05 | < 0.05 |  |  |  |  |  |  |  |  |  | 0.1 to 1 | < 0.1 | A (an IC50 ratio greater than or equal to 10 fold) | < 1
